ChEMBL document CHEMBL1201862, “PubChem BioAssay data set” (2004)
Activity calls are given as the source filed them.

Key:
[1] = viability loss of HPDE-C7K cells – cell-based, fluorescence, HTS, primary screen (AID 431); format: functional; settings: Homo sapiens
[2] = HPDE-C7 pancreatic duct cell viability loss – fluorescence, HTS (AID 430); format: functional, cell-based; settings: Homo sapiens
INS1 = experiment: INS-1E survival protection against cytokine death – cell-based, luminescence, retest, dose response (AID 449756); format: functional; settings: Rattus norvegicus;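 note: cell death triggered by IL-1 beta plus TNF-alpha plus IFN-gamma mixture; protective hits raise ATP signal compared with cytokine alone wells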
[3] = HEK-293T cell viability reduction – luminescence, B-cell screen hits, cytotoxicity control for BCR NF-kB inhibitor project, dose response (AID 489021); format: functional, cell-based;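 note: HEK-293T cells carrying an NF-kB luciferase reporter; cells exposed to compound for about 14 hours before viability readout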
Aminopeptidase N = molecular target: T1, Aminopeptidase N (Plasmodium falciparum FcB1/Columbia, UniProt O96935); experiment: malaria alanyl aminopeptidase activity blockers – biochemical, fluorogenic H-Leu-NHMec substrate, 1536-well (AID 1445); design: species or system Plasmodium falciparum 3D7, 3D7
T1 sequence (O96935 whole entry): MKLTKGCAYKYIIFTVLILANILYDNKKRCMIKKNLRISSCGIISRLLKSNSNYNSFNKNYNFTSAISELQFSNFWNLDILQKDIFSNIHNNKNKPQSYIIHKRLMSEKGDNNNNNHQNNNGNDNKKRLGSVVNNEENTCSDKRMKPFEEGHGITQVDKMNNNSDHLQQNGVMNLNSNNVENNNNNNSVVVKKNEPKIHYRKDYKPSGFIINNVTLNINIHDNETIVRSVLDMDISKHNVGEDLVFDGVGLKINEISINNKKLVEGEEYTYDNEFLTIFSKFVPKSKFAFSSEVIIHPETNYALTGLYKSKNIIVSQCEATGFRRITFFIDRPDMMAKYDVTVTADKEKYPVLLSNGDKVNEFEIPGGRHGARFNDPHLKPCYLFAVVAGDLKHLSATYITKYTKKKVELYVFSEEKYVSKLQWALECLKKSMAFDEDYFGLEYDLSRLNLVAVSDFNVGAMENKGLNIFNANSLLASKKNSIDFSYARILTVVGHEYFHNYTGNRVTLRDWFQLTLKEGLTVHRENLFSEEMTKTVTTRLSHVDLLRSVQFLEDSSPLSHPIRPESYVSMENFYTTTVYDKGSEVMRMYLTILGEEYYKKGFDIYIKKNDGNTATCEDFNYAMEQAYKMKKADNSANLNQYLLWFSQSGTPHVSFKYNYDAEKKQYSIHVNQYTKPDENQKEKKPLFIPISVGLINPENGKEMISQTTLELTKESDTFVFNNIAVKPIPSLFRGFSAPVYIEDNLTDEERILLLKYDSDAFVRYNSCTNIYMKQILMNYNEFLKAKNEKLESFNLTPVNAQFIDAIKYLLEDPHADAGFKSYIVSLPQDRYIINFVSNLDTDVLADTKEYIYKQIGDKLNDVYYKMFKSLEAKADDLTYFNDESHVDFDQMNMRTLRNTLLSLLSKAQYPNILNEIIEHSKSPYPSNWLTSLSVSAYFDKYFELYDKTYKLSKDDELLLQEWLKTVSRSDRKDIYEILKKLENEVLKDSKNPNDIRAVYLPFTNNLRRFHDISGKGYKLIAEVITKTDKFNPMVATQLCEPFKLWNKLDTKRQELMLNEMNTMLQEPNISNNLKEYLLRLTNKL

[4] = Trypanosoma cruzi growth suppression in host cells – NIH3T3 host cells, beta-gal luminescence, confirmation (AID 2044); format: functional, cell-based;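 note: intracellular parasites grown in NIH/3T3 mouse fibroblasts as host cells; luminescent beta-galactosidase reporter signal from transgenic T. cruzi replicating inside host cells; inhibitors lower the luminescence signal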
[5] = NIH3T3 cell viability loss – ATP luminescence, mouse fibroblasts, counter-screen, dose response (AID 2010); format: functional, cell-based;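 note: cells exposed to compound for about 90 hours before reading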
[6] = HEK-293T viability loss after treatment – luminescence, T-cell screen hits, cytotoxicity control for TCR NF-kB inhibitor project, dose response (AID 489026); format: functional, cell-based;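 note: cells exposed to compound about 14 hours before the viability readout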
[7] = fluconazole-exposed Candida albicans growth modulators – fluorescence, retest, confirmation (AID 2467); format: functional, cell-based
[8] = NIH-3T3 fibroblast cytotoxicity, dose response, cytotoxicity control, cell-based, fluorescence, Alamar Blue, secondary assay (AID 2327); format: functional;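 note: NIH-3T3 mouse fibroblasts cultured with fluconazole at 8 µg/mL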
[9] = molecular target: T2, Voltage-gated N-type calcium channel alpha-1B subunit/Amyloid beta A4 precursor protein-binding family A member 1 (Homo sapiens, UniProt Q00975+Q02410); format: protein assay
[10] = molecular target: T2, Voltage-gated N-type calcium channel alpha-1B subunit/Amyloid beta A4 precursor protein-binding family A member 1; format: protein assay; remark: listed apart in the source
[11] = toxicity to human hepatoma HepG2 cells – cell-based, cherry-picked samples, cytotoxicity control, dose response (AID 1159577); format: functional
[12] = P. falciparum Dd2 growth inhibitors, dose response, SYBR Green, cherry-picked samples (AID 1159567); format: functional, cell-based
[13] = molecular target: T3, Long-chain-fatty-acid--AMP ligase FadD28 (Mycobacterium tuberculosis, UniProt P9WQ59); experiment: Fluorescence polarization aasay to screen for inhibitors that compete for the binding of FadD28 to a bisubstrate Measured in Biochemical System Using Plate Reader - 2147-01_Inhibitor_Dose_CherryPick_Activity.; format: functional, Mycobacterium tuberculosis H37Rv
T3 sequence (P9WQ59 whole entry): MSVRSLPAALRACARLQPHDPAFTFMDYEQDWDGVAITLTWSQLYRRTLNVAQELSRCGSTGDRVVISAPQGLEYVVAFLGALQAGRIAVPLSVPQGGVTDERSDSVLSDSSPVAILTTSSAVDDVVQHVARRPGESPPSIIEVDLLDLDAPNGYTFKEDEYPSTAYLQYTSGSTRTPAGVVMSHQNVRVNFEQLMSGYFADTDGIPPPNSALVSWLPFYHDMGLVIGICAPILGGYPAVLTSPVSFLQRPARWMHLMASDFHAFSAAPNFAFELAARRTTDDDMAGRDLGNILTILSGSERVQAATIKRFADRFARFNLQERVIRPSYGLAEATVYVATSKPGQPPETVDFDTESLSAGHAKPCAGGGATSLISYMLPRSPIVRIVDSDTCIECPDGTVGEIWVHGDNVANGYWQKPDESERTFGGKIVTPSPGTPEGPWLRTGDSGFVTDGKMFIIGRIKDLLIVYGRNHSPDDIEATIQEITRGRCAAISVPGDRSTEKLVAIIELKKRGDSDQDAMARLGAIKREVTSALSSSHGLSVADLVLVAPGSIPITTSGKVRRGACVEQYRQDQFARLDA

Leucine aminopeptidase = molecular target: T4, Leucine aminopeptidase (Plasmodium falciparum 3D7, UniProt Q8IL11); experiment: P. falciparum M17LAP inhibitors, primary screen, biochemical, fluorogenic H-Leu-NHMec substrate, 1536-well (AID 1619); format: functional
T4 sequence (Q8IL11 whole entry): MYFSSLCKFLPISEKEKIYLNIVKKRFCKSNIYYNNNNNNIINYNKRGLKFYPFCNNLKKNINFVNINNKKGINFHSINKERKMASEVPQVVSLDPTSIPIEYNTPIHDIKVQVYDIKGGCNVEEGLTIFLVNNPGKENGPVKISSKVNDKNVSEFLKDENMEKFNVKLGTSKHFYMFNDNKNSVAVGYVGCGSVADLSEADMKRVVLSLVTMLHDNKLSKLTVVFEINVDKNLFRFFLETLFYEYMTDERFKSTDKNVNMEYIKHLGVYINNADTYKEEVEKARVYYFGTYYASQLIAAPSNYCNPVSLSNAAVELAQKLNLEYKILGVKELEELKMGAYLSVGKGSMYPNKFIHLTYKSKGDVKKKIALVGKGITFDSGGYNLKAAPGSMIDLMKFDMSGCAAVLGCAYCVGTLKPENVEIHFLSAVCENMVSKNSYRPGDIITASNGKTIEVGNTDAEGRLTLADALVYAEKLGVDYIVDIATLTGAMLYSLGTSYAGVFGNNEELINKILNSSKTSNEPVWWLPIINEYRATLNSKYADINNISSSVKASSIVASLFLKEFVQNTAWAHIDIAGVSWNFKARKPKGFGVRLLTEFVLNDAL

T2 sequence (Q00975 whole entry): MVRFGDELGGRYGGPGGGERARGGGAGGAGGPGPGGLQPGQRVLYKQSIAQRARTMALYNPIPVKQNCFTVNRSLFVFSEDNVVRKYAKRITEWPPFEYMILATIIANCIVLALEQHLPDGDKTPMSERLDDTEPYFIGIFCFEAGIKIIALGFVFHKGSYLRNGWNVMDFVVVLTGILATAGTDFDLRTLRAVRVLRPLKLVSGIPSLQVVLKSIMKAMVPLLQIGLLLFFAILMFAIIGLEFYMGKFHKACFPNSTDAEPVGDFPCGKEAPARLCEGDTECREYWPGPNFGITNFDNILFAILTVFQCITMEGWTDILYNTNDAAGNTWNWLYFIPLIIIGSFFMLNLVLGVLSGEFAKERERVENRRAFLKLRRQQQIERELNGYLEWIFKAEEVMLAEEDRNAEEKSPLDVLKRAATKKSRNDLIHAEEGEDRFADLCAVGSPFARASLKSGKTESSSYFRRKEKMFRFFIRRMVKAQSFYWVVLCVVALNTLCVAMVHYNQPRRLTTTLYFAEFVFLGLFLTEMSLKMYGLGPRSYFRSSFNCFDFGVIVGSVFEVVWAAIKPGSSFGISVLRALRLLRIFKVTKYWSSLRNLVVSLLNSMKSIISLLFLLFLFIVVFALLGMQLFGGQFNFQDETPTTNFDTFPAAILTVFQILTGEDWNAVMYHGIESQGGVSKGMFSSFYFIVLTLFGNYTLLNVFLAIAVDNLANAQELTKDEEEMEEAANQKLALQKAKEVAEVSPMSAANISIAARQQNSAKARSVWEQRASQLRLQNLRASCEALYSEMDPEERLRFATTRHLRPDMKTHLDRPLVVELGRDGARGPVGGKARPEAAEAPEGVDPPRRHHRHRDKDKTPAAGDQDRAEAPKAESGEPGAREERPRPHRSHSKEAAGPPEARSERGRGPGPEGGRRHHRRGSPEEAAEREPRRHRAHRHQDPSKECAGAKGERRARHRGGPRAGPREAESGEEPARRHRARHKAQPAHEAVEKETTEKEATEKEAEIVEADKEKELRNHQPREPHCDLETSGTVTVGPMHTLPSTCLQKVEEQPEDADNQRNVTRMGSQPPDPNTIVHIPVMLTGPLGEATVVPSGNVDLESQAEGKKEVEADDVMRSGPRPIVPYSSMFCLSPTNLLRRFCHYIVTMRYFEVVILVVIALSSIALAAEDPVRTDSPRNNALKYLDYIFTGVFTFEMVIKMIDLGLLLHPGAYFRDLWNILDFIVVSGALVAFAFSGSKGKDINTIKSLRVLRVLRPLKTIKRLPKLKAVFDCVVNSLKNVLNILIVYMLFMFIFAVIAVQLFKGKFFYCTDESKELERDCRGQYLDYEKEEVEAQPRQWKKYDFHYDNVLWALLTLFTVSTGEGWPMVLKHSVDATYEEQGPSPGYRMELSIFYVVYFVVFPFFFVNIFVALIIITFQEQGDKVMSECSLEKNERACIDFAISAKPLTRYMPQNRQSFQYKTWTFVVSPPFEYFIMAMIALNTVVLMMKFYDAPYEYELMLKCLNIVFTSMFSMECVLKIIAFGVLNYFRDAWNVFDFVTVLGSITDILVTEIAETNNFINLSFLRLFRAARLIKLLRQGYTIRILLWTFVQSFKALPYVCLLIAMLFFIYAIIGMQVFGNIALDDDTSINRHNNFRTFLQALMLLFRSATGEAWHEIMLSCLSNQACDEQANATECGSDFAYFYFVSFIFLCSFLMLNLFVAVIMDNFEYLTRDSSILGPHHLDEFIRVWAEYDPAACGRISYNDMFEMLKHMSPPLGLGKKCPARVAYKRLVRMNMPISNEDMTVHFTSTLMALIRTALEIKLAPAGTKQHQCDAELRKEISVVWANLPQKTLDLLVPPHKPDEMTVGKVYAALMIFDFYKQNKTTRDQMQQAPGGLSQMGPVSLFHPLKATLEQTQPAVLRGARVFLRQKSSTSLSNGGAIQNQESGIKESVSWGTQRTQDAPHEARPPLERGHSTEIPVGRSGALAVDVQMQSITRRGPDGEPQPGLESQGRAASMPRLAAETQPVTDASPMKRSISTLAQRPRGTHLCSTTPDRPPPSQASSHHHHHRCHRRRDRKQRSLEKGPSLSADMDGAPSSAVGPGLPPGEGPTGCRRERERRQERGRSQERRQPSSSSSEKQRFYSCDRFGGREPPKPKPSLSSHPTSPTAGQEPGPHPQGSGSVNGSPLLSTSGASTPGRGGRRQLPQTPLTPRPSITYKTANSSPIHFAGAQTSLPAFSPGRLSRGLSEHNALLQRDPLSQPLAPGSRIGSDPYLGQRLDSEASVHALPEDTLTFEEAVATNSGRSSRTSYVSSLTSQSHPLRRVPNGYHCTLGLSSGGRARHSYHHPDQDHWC
T2 sequence (Q02410 whole entry): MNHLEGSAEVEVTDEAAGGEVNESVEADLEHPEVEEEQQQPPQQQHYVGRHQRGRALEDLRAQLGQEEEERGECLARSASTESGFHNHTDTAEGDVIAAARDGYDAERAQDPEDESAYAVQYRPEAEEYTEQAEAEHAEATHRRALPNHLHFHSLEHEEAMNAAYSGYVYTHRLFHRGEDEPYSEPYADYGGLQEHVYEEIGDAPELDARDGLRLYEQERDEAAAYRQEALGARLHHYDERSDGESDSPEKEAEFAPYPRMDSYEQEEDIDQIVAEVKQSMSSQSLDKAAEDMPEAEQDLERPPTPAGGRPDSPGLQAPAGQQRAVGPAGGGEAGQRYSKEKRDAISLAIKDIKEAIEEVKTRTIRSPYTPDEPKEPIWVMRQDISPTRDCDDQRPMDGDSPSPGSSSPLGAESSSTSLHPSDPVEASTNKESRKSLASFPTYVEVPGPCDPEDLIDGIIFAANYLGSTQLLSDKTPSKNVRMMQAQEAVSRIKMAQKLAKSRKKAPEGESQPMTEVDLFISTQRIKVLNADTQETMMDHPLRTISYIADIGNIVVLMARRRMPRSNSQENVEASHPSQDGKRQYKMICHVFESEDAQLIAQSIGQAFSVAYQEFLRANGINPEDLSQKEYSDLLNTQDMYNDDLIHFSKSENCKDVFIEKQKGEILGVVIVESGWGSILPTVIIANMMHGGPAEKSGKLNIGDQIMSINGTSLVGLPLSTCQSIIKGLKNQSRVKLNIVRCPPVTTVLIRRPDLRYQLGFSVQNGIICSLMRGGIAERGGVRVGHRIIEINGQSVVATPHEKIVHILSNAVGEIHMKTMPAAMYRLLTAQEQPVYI

With `O=C1c2n[nH]c(-c3ccccc3O)c2C(c2ccccc2F)N1Cc1ccco1` (configuration not stated) the EC50 [1] was 15 µM (active) and the EC50 [2] was 13.1 µM (active).
In the case of `O=C(NNC(=O)c1ccccc1O)c1ccc(Cl)c(S(=O)(=O)N2CCc3ccccc32)c1`, the AC50 (INS1) is reported as 4.28 µM (active) and the IC50 [3] is reported as 77.9 µM (inactive).
For `O=C(Nc1ccc(-n2ccnc2P(=O)(O)c2ccccc2)cc1)c1ccccc1Br`, the IC50 (Aminopeptidase N) was 11.2 µM (active).
With `CCCCCCCn1c2c(c(=N)c3ccccc31)CCC2` the EC50 [4] was < 0.1 µM (active), the EC50 [5] was 25.2 µM (active) and the IC50 [6] was 72.2 µM (inactive). The EC50 [7] was 4.4 µM (active), the EC50 (cells) was < 0.004 µM (active) and the EC50 [8] was > 160 µM (inactive).
In the case of `CCOC(=O)c1nnn2c1nc(Nc1cccc(C(F)(F)F)c1)c1ccccc12`, the IC50 [9] is reported as > 50 µM (inactive) and the IC50 [10] is reported as 25.1 µM (active).
With `N#C[C@H]1[C@H](c2ccc(C#Cc3ccccc3F)cc2)[C@@H](CO)N1C(=O)C1CCCC1` the AC50 [11] was > 39 µM (inactive) and the AC50 [12] was 4.27 µM (active).
In the case of `COC(=O)c1cc(NC(=O)c2ccccc2)c(=O)oc1/C=C/Nc1ccc(Oc2ccccc2)cc1`, the AC50 [13] is reported as 60.3 µM (active), the IC50 [9] is reported as > 50 µM (inactive) and the IC50 [10] is reported as 6.82 µM (active).
For `CCCCCCCCc1nnc(SC(C)C(=O)O)[nH]1` (configuration not stated), the IC50 (Leucine aminopeptidase) was 5.32 µM (active).
In the case of `Cc1cc(=O)oc2c(CN3CCCCC3)c(O)c(Cl)cc12`, the IC50 (Aminopeptidase N) is reported as 59.6 µM (active).
In the case of `COc1ccc(C(=O)N/N=C/c2ccc(OC)c(CN3CCCc4ccccc43)c2)cc1`, the IC50 [3] is reported as > 80 µM (inactive).
For `COc1ccc(NC(=O)Cc2c(F)cccc2Cl)cc1`, the IC50 (Leucine aminopeptidase) was 13.6 µM (active).
